# According to PubChem BioAssay AID248 (DTP/NCI, 2004):
# Where “and” joins values, the source holds several entries; their conditions need not be identical. Equal entries are not always repeated. Inconclusive results and toxic doses are left out.
# Test system: L1210 leukemia ip in BDF1 mice, survival T/C
# Experiment: NCI In Vivo Anticancer Drug Screen. Data for tumor model L1210 Leukemia (intraperitoneal) in B6D2F1 (BDF1) mice
# Settings: endpoint: mean survival time, higher = longer survival
# Procedure, shortened: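 Each compound was tested against a transplantable tumor grown in mice. The endpoint was survival, with treated animals benchmarked against vehicle controls as a simple ratio.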
# [1] = dose: 100.0 mg/kg/injection, schedule: Q04DX003 (ip), vehicle: saline with Tween-80
# [2] = dose: 200.0 mg/kg/injection, schedule: Q04DX003 (ip), vehicle: saline with Tween-80
# [3] = dose: 400.0 mg/kg/injection, schedule: Q04DX003 (ip), vehicle: saline with Tween-80
# [4] = dose: 100.0 mg/kg/injection, schedule: Q01DX009 (ip), vehicle: Klucel (hydroxypropylcellulose) (HPC)
# [5] = dose: 200.0 mg/kg/injection, schedule: Q01DX009 (ip), vehicle: Klucel (hydroxypropylcellulose) (HPC)
# [6] = dose: 100.0 mg/kg/injection, schedule: Q04DX003 (ip), vehicle: Klucel (hydroxypropylcellulose) (HPC)
# [7] = dose: 200.0 mg/kg/injection, schedule: Q04DX003 (ip), vehicle: Klucel (hydroxypropylcellulose) (HPC)
# [8] = dose: 400.0 mg/kg/injection, schedule: Q01DX009 (ip), vehicle: Klucel (hydroxypropylcellulose) (HPC)
# [9] = dose: 400.0 mg/kg/injection, schedule: Q04DX003 (ip), vehicle: Klucel (hydroxypropylcellulose) (HPC)
structure (smiles),measurement,setting,value
Cc1ccccc1S(=O)(=O)NSc1ccccc1[N+](=O)[O-],T/C,"dose: 75.0 mg/kg/injection, schedule: Q01DX001 (ip), vehicle: other",101 % of control
same,T/C,"dose: 150.0 mg/kg/injection, schedule: Q01DX001 (ip), vehicle: other",95 % of control
same,T/C,"dose: 300.0 mg/kg/injection, schedule: Q01DX001 (ip), vehicle: other",95 % of control
Cn1c([N+](=O)[O-])cnc1/C=[N+](/C)[O-],T/C,"dose: 100.0 mg/kg/injection, schedule: Q04DX002 (ip), vehicle: saline",107 % of control
same,T/C,"dose: 200.0 mg/kg/injection, schedule: Q04DX002 (ip), vehicle: saline",100 % of control
same,T/C,"dose: 400.0 mg/kg/injection, schedule: Q04DX002 (ip), vehicle: saline",107 % of control
CCOc1ccc(NC(=O)Nc2ccccc2)cc1,T/C,"dose: 100.0 mg/kg/injection, schedule: Q01DX009 (ip), vehicle: saline with Tween-80",94 % of control
same,T/C,[1],96 % of control
same,T/C,"dose: 200.0 mg/kg/injection, schedule: Q01DX009 (ip), vehicle: saline with Tween-80",93 % of control
same,T/C,[2],94 % of control
same,T/C,"dose: 400.0 mg/kg/injection, schedule: Q01DX009 (ip), vehicle: saline with Tween-80",93 % of control
same,T/C,[3],94 % of control
CC12CCC(O)CC1=CCC1C2CCC2(C)c3nc(C#N)c(=N)n(O)c3CC12 (centres undefined),T/C,"dose: 100.0 mg/kg/injection, schedule: Q04DX002 (ip), vehicle: Klucel (hydroxypropylcellulose) (HPC)",94 % of control
same,T/C,"dose: 200.0 mg/kg/injection, schedule: Q04DX002 (ip), vehicle: Klucel (hydroxypropylcellulose) (HPC)",105 % of control
Ic1ncnc2nc[nH]c12,T/C,"dose: 56.0 mg/kg/injection, schedule: Q01DX Z (ip), vehicle: carboxymethylcellulose (CMC)",104 % of control
same,T/C,"dose: 62.5 mg/kg/injection, schedule: Q01DX Z (ip), vehicle: carboxymethylcellulose (CMC)",115 % of control
same,T/C,[4],118 % of control
same,T/C,"dose: 100.0 mg/kg/injection, schedule: Q04DX003 (ip), vehicle: other",106 % of control
same,T/C,"dose: 112.0 mg/kg/injection, schedule: Q01DX Z (ip), vehicle: carboxymethylcellulose (CMC)",121 % of control
same,T/C,"dose: 125.0 mg/kg/injection, schedule: Q01DX Z (ip), vehicle: carboxymethylcellulose (CMC)",110 % of control
same,T/C,"dose: 132.0 mg/kg/injection, schedule: Q01DX009 (ip), vehicle: saline",122 % of control
same,T/C,[5],119 % of control
same,T/C,"dose: 200.0 mg/kg/injection, schedule: Q01DX009 (ip), vehicle: saline",120 % of control
same,T/C,"dose: 200.0 mg/kg/injection, schedule: Q04DX003 (ip), vehicle: other",103 % of control
same,T/C,"dose: 300.0 mg/kg/injection, schedule: Q01DX009 (ip), vehicle: Klucel (hydroxypropylcellulose) (HPC)",151 % of control
same,T/C,"dose: 400.0 mg/kg/injection, schedule: Q04DX003 (ip), vehicle: other",103 % of control
CCCCCCCCCCCCCCCC,T/C,"dose: 25.0 mg/kg/injection, schedule: Q04DX003 (ip), vehicle: Klucel (hydroxypropylcellulose) (HPC)",96 % of control
same,T/C,"dose: 50.0 mg/kg/injection, schedule: Q04DX003 (ip), vehicle: Klucel (hydroxypropylcellulose) (HPC)",94 % of control
same,T/C,[4],109 % of control
same,T/C,[6],100 % of control and 104 % of control
same,T/C,[5],96 % of control
same,T/C,[7],102 % of control
same,T/C,[8],89 % of control
same,T/C,[9],97 % of control
Cc1ccc(S(=O)(=O)N2CCc3ccccc3C=C2Br)cc1,T/C,"dose: 100.0 mg/kg/injection, schedule: Q01DX001 (ip), vehicle: carboxymethylcellulose (CMC)",100 % of control
same,T/C,"dose: 200.0 mg/kg/injection, schedule: Q01DX001 (ip), vehicle: carboxymethylcellulose (CMC)",102 % of control
same,T/C,"dose: 400.0 mg/kg/injection, schedule: Q01DX001 (ip), vehicle: carboxymethylcellulose (CMC)",112 % of control
O=C(O)CCCCSc1ncnc2nc[nH]c12,T/C,"dose: 15.0 mg/kg/injection, schedule: Q01DX009 (ip), vehicle: saline with Tween-80",106 % of control
same,T/C,"dose: 15.0 mg/kg/injection, schedule: Q01DX009 (oral), vehicle: saline with Tween-80",98 % of control
same,T/C,"dose: 30.0 mg/kg/injection, schedule: Q01DX009 (ip), vehicle: saline with Tween-80",103 % of control
same,T/C,"dose: 30.0 mg/kg/injection, schedule: Q01DX009 (oral), vehicle: saline with Tween-80",86 % of control
same,T/C,"dose: 60.0 mg/kg/injection, schedule: Q01DX009 (ip), vehicle: saline with Tween-80",92 % of control
same,T/C,"dose: 60.0 mg/kg/injection, schedule: Q01DX009 (oral), vehicle: saline with Tween-80",95 % of control
same,T/C,[4],113 % of control
same,T/C,[6],107 % of control
same,T/C,[1],103 % of control
same,T/C,"dose: 120.0 mg/kg/injection, schedule: Q01DX009 (ip), vehicle: saline with Tween-80",123 % of control
same,T/C,"dose: 120.0 mg/kg/injection, schedule: Q01DX009 (oral), vehicle: saline with Tween-80",109 % of control
same,T/C,[5],101 % of control
same,T/C,[7],102 % of control
same,T/C,[2],104 % of control
same,T/C,"dose: 240.0 mg/kg/injection, schedule: Q01DX009 (ip), vehicle: saline with Tween-80",105 % of control
same,T/C,"dose: 240.0 mg/kg/injection, schedule: Q01DX009 (oral), vehicle: saline with Tween-80",91 % of control
same,T/C,[8],116 % of control
same,T/C,[9],115 % of control
same,T/C,[3],103 % of control
same,T/C,"dose: 480.0 mg/kg/injection, schedule: Q01DX009 (ip), vehicle: saline with Tween-80",118 % of control
same,T/C,"dose: 480.0 mg/kg/injection, schedule: Q01DX009 (oral), vehicle: saline with Tween-80",100 % of control
same,T/C,"dose: 720.0 mg/kg/injection, schedule: Q01DX009 (oral), vehicle: saline with Tween-80",100 % of control
